From PubChem BioAssay (NCI) come the findings set out here.

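Following 48 hours of exposure in 96-well plates, responses at five concentrations were used to interpolate endpoints linearly. GI50: concentration for 50% inhibition of growth. TGI marks complete inhibition of growth.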

Among the test systems are MOLT-4 leukemia; A549 NSCLC; OVCAR-3 ovarian; SN12C renal; SW-620 colon; RPMI-8226 leukemia; EKVX NSCLC; M14 melanoma; MDA-MB-435; IGROV1 ovarian.
What all share (assay): DTP human tumour cell line panel, 48 h

Regarding `Nc1ccc(-c2nc3ccccc3[nH]2)c(O)c1`, the GI50 (in general, the concentration at which growth is held to half of that of the control) was 39.7 µM in the experiment with MOLT-4 leukemia; 35.3 µM in the experiment on A549 NSCLC; 40.4 µM in the experiment on OVCAR-3 ovarian; 42.4 µM in the experiment with SN12C renal; 29.1 µM in the experiment with SW-620 colon; 17 µM in the experiment on RPMI-8226 leukemia. Besides, the GI50 in the experiment with EKVX NSCLC is 15.1 µM; in the experiment with M14 melanoma it was 30.4 µM; with MDA-MB-435 it was 28.2 µM; in the experiment with IGROV1 ovarian, more than 100 µM. Also, the TGI (usually the concentration giving total growth inhibition) is more than 100 µM in the experiment with MOLT-4 leukemia; more than 100 µM with A549 NSCLC; more than 100 µM in the experiment with OVCAR-3 ovarian; more than 100 µM with SN12C renal; more than 100 µM with SW-620 colon; 52.3 µM in the experiment with RPMI-8226 leukemia. The total growth inhibition concentration (TGI) with EKVX NSCLC is more than 100 µM; with M14 melanoma it was more than 100 µM; in the experiment with MDA-MB-435, 64.6 µM; with IGROV1 ovarian it was more than 100 µM.

For `Nc1ccc(N=Nc2ccccc2)c(N)n1`, the GI50 in the experiment on MOLT-4 leukemia was 35.4 µM; in the experiment on A549 NSCLC it was 27.4 µM; in the experiment on OVCAR-3 ovarian, 20.2 µM; in the experiment on SN12C renal, 30.4 µM; in the experiment on SW-620 colon it was 28.6 µM; in the experiment on RPMI-8226 leukemia, 36.2 µM. Moreover, the GI50 is 4.08 µM with EKVX NSCLC, 29.4 µM in the experiment on M14 melanoma, 22.4 µM with MDA-MB-435 and 23.7 µM with IGROV1 ovarian. The TGI is more than 100 µM in the experiment with MOLT-4 leukemia; more than 100 µM in the experiment with A549 NSCLC; 67.9 µM in the experiment on OVCAR-3 ovarian; more than 100 µM in the experiment on SN12C renal; more than 100 µM with SW-620 colon; more than 100 µM in the experiment with RPMI-8226 leukemia. The TGI turned out to be 33.4 µM in the experiment on EKVX NSCLC, 74.9 µM in the experiment with M14 melanoma, 80.1 µM in the experiment on MDA-MB-435 and 77.5 µM in the experiment with IGROV1 ovarian.

Regarding `CCN(CC)CCOc1ccc(Nc2ncc3cc(-c4c(Cl)cccc4Cl)c(=O)n(CCOC)c3n2)cc1`, the GI50 in the experiment with MOLT-4 leukemia was 0.781 µM; in the experiment on A549 NSCLC, 0.498 µM; in the experiment with OVCAR-3 ovarian, 0.483 µM; in the experiment on SN12C renal it was 0.0237 µM; with SW-620 colon, 1.2 µM; with RPMI-8226 leukemia it was 0.921 µM. Moreover, the GI50 is 0.796 µM in the experiment with EKVX NSCLC, 0.233 µM in the experiment with M14 melanoma, 0.469 µM in the experiment with MDA-MB-435 and 0.0138 µM with IGROV1 ovarian. Also, the TGI stood at 5.41 µM in the experiment on MOLT-4 leukemia; 4.18 µM in the experiment with A549 NSCLC; 2.96 µM with OVCAR-3 ovarian; 5.37 µM with SN12C renal; 5.86 µM with SW-620 colon; 3.15 µM in the experiment with RPMI-8226 leukemia. In addition, the TGI in the experiment with EKVX NSCLC amounted to 7.38 µM; in the experiment on M14 melanoma it was 1.5 µM; with MDA-MB-435, 2.5 µM; with IGROV1 ovarian, 0.0983 µM.

For the compound `COc1cc(C(=O)/C=C/c2c(-c3ccc(F)cc3)nc3sc(C)cn23)cc(OC)c1OC`, the GI50 in the experiment with MOLT-4 leukemia is 1.62 µM; in the experiment on A549 NSCLC, 9.34 µM; in the experiment on OVCAR-3 ovarian it was 3.66 µM; with SN12C renal, 9.01 µM; in the experiment with SW-620 colon, 5.34 µM; in the experiment with RPMI-8226 leukemia, 2.32 µM. For the same compound, the GI50 with EKVX NSCLC was 2.29 µM; in the experiment with M14 melanoma, 5.12 µM; with MDA-MB-435, 1.75 µM; with IGROV1 ovarian, 8.71 µM. Moreover, the TGI was 5.13 µM in the experiment with MOLT-4 leukemia; more than 100 µM in the experiment on A549 NSCLC; more than 100 µM in the experiment on OVCAR-3 ovarian; more than 100 µM in the experiment on SN12C renal; more than 100 µM in the experiment on SW-620 colon; more than 100 µM in the experiment on RPMI-8226 leukemia. The TGI with EKVX NSCLC was more than 100 µM; with M14 melanoma it was more than 100 µM; in the experiment on MDA-MB-435, 6.92 µM; in the experiment with IGROV1 ovarian it was more than 100 µM.

With `COc1cc2c(c(OC)c1OC)-c1ccc(NNC(=S)N(Cc3cccc(C[N+](Cc4cccc(CNC56CC7CC(CC(C7)C5)C6)c4)(Cc4cccc(CNC56CC7CC(CC(C7)C5)C6)c4)Cc4cccc(CN(C(=S)NNc5ccc6c(cc5=O)[C@@H](NC(C)=O)CCc5cc(OC)c(OC)c(OC)c5-6)C56CC7CC(CC(C7)C5)C6)c4)c3)C34CC5CC(CC(C5)C3)C4)c(=O)cc1[C@@H](NC(C)=O)CC2` (stereo not given in full), the GI50 was 0.562 µM in the experiment on MOLT-4 leukemia; 1.61 µM with A549 NSCLC; 1.66 µM with OVCAR-3 ovarian; 2.23 µM with SN12C renal; 0.814 µM in the experiment with SW-620 colon; 0.757 µM in the experiment with RPMI-8226 leukemia. Moreover, the GI50 in the experiment on EKVX NSCLC is 2.68 µM; with M14 melanoma it was 0.822 µM; in the experiment with MDA-MB-435, 0.779 µM; in the experiment with IGROV1 ovarian, 1.45 µM. The total growth inhibition concentration (TGI) was found to be 1.93 µM with MOLT-4 leukemia; 6 µM in the experiment on A549 NSCLC; 6.53 µM in the experiment with OVCAR-3 ovarian; 6.9 µM in the experiment with SN12C renal; 2.06 µM in the experiment with SW-620 colon; 1.76 µM with RPMI-8226 leukemia. The TGI was determined as 8.46 µM in the experiment with EKVX NSCLC, 2.26 µM in the experiment with M14 melanoma, 3.5 µM with MDA-MB-435 and 5.95 µM in the experiment on IGROV1 ovarian.

On to `NC(=O)C(Br)CBr` (stereo not given), for which the GI50 in the experiment on MOLT-4 leukemia is 1.42 µM; in the experiment on A549 NSCLC, 3.71 µM; in the experiment with OVCAR-3 ovarian, 1.48 µM; in the experiment with SN12C renal, 3.93 µM; with SW-620 colon, 1.29 µM; in the experiment with RPMI-8226 leukemia, 2.82 µM. In addition, the GI50 in the experiment with EKVX NSCLC was 1.9 µM; in the experiment on M14 melanoma, 1.63 µM; with MDA-MB-435, 1.74 µM; with IGROV1 ovarian it was 1.59 µM. Moreover, the concentration for total growth inhibition (TGI) in the experiment on MOLT-4 leukemia was 4.15 µM; in the experiment on A549 NSCLC, 10.6 µM; in the experiment with OVCAR-3 ovarian it was 2.83 µM; with SN12C renal, 20.6 µM; in the experiment on SW-620 colon, 2.79 µM; in the experiment with RPMI-8226 leukemia, 11.9 µM. Further, the total growth inhibition concentration (TGI) turned out to be 4.92 µM in the experiment on EKVX NSCLC, 3.02 µM in the experiment on M14 melanoma, 4.33 µM in the experiment on MDA-MB-435 and 4.78 µM in the experiment with IGROV1 ovarian.

Turning to `NS(=O)(=O)c1ccc(C2C3=C(CCCC3=O)OC3=C2C(=O)c2ccccc2C3=O)cc1` (stereo not given), the GI50 in the experiment on MOLT-4 leukemia is 0.293 µM; with A549 NSCLC it was 1.42 µM; in the experiment with OVCAR-3 ovarian, 0.244 µM; with SN12C renal, 0.319 µM; in the experiment on SW-620 colon, 0.417 µM; in the experiment with RPMI-8226 leukemia, 0.41 µM. For the same compound, the GI50 is 0.699 µM in the experiment on EKVX NSCLC, 0.455 µM with M14 melanoma, 0.19 µM in the experiment with MDA-MB-435 and 0.347 µM with IGROV1 ovarian. The TGI amounted to 0.848 µM in the experiment with MOLT-4 leukemia; 3.53 µM with A549 NSCLC; 0.724 µM with OVCAR-3 ovarian; 1.03 µM with SN12C renal; 1.33 µM in the experiment on SW-620 colon; 1.99 µM in the experiment on RPMI-8226 leukemia. Also, the concentration for total growth inhibition (TGI) in the experiment with EKVX NSCLC came to 2.53 µM; in the experiment on M14 melanoma it was 1.68 µM; in the experiment on MDA-MB-435 it was 0.357 µM; with IGROV1 ovarian, 1.2 µM.
